Consider 6 molecules from patent US20250032623A1, “HETEROBIFUNCTIONAL COMPOUNDS AND THEIR USE IN TREATING DISEASE” (HALDA THERAPEUTICS OPCO, INC., priority 2021, published 2025).

Test [1] concerns the target T1, KRAS G12C (Homo sapiens, UniProt P01116, G12C).
T1 construct: Kras (aa 2-169), GST; purchased Reaction Biology Corporation (RBC)
Description: KRAS G12C nucleotide exchange assay (SOS1 mediated, HTRF). Format: biochemical. To be noted: 1 hr pre-incubation at RT, read-out: IC50 (inhibition of KRas G12C). The method, then: Exemplary compounds were tested for ability to inhibit KRas G12C.
KRAS target engagement (IC50 determination) was performed using a KRAS G12C nucleotide exchange assay (Reaction Biology Corporation). Specifically, compounds were tested against KRAS G12C in 10-point concentration IC50 mode with 3-fold serial dilution at a starting concentration of 10 μM. ARS1620 was used as a control. Compounds were pre-incubated with protein for 1 hr at RT. Parameters for the assay were:
In the method, Kras was mixed with a-GST Tb antibody (1.5× solution) and […] was delivered to reaction wells. Compounds were delivered using acoustic dispenser (Echo, Labcyte). Kras/aGST-Tb Ab/compound mixture was incubated for 1 hour at room temperature. A 3× solution of SOS1 and GTP* was prepared in reaction buffer. A […] aliquot of SOS1/GTP* solution was added to reaction well to initiate the exchange reaction. No—SOS1 reaction or max compound concentration was used as blank. IC50 determination was performed using a Sigmoidal dose response (variable slope) equation.
On the technique in general: Time-resolved FRET reads energy transfer from a long-lived donor to a nearby acceptor.

Test [2] relates to HEK293 cells. Description: Cellular growth inhibition assay (CellTiter-Glo), HEK293 cells. It counts as cell-based. To be noted: Homo sapiens, 72 h, three days compound treatment, CellTiter-Glo 2.0, read-out: CTG HEK293 GI50. A digest of the protocol:
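GI50 derived by four-parameter regression of luminescence (CellTiter-Glo 2.0) at Day 0 and Day 3, normalized to DMSO wells. Cells (HeLa, HEK293; 500/well, DMEM plus 10% FBS) were dosed with compound dilutions 24 h post-seeding and exposed for three days at 37 °C.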
On the technique in general: ATP-based viability assays read luminescence as a measure of living cells.

For orientation: IC50 means the concentration at which inhibition is half-maximal. The term GI50 denotes the concentration at which growth is held to half of that of the control.

T1 sequence (P01116 2-169 isoform P01116-2 G12C): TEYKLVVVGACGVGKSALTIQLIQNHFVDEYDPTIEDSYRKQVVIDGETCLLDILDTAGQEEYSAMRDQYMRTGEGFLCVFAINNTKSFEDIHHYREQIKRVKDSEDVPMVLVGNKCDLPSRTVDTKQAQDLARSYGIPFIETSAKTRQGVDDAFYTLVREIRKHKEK

`C=C(F)C(=O)N1CCN(c2nc(OC[C@@H]3CCCN3CCOCCOCCNC(=O)c3ccc(Nc4ncc5c(n4)N(C4CCCC4)[C@H](CC)C(=O)N5C)c(OC)c3)nc3c2CCN(c2cccc4cccc(Cl)c24)C3)C[C@@H]1CC#N` [Compound I-63, N-(2-(2-(2-((S)-2-(((7-(8-chloronaphthalen-1-yl)-4-((S)-3-(cyanomethyl)-4-(2-fluoroacryloyl)piperazin-1-yl)-5,6,7,8-tetrahydropyrido[3,4-d]pyrimidin-2-yl)oxy)methyl)pyrrolidin-1-yl)ethoxy)ethoxy)ethyl)-4-(((R)-8-cyclopentyl-7-ethyl-5-methyl-6-oxo-5,6,7,8-tetrahydropteridin-2-yl)amino)-3-methoxybenzamide]: the IC50 in test [1] was less than 100 nM.
As for `C=C(F)C(=O)N1CCN(c2nc(OC[C@@H]3CCCN3CCOCCOCCOCCOCCOCCOCCNC(=O)c3ccc(Nc4ncc5c(n4)N(C4CCCC4)[C@H](CC)C(=O)N5C)c(OC)c3)nc3c2CCN(c2cccc4cccc(Cl)c24)C3)C[C@@H]1CC#N` [Compound I-65, N-[2-[2-[2-[2-[2-[2-[2-[(2S)-2-[[7-(8-chloro-1-naphthyl)-4-[(3S)-3-(cyanomethyl)-4-(2-fluoroprop-2-enoyl)piperazin-1-yl]-6,8-dihydro-5H-pyrido1[3,4-d]pyrimidin-2-yl]oxymethyl]pyrrolidin-1-yl]ethoxy]ethoxy]ethoxy]ethoxy]ethoxy]ethoxy]ethyl]-4-[1[(7R)-8-cyclopentyl-7-ethyl-5-methyl-6-oxo-7H-pteridin-2-yl]amino]-3-methoxy-benzamide], in test [1], the IC50 was 100 to 1000 nM.
As to `Cc1ccnc(C(C)C)c1-n1c(=O)nc(N2CCN(C(=O)/C=C/CN(C)CCOCCOCCOCCOCCOCCOCCON(C)C(=O)N3N=C(c4cc(F)ccc4F)SC3(CCCN)c3ccccc3)C[C@@H]2C)c2cc(F)c(-c3c(O)cccc3F)nc21` (stereo partly shown) [Compound I-77], the IC50 in test [1] lay in the range of 1000 to 5000 nM.
Same read-out and setting: under `Cc1ccnc(C(C)C)c1-n1c(=O)nc(N2CCN(C(=O)/C=C/CN(C)CCOCCOCCOCCOCCOCCOCCOCCOCCON(C)C(=O)N3N=C(c4cc(F)ccc4F)SC3(CCCN)c3ccccc3)C[C@@H]2C)c2cc(F)c(-c3c(O)cccc3F)nc21` (stereo partly shown) [Compound I-79] stands 1000 to 5000 nM.
With `CN(C/C=C/C(=O)N1CCN(c2nc(OC[C@@H]3CCCN3C)nc3c2CCN(c2cccc4cccc(Cl)c24)C3)C[C@@H]1CC#N)CCOCCOCCOCCOCCON(C)C(=O)N1N=C(c2cc(F)ccc2F)SC1(CCCN)c1ccccc1` (stereo partly drawn) [Compound I-96, 2-(3-aminopropyl)-N-[2-[2-[2-[2-[2-[[(E)-4-[(2S)-4-[7-(8-chloro-1-naphthyl)-2-[[(2S)-1-methylpyrrolidin-2-yl]methoxy]-6,8-dihydro-5H-pyrido[3,4-d]pyrimidin-4-yl]-2-(cyanomethyl)piperazin-1-yl]-4-oxo-but-2-enyl]-methylamino]ethoxy]ethoxy]ethoxy]ethoxy]ethoxy]-5-(2,5-difluorophenyl)-N-methyl-2-phenyl-1,3,4-thiadiazole-3-carboxamide], in test [1], the IC50 was less than 100 nM.
Regarding `C=C(F)C(=O)N1CCN(c2nc(OC[C@@H]3CCCN3CCCNC(=O)c3ccc(Nc4ncc5c(n4)N(C4CCCC4)[C@H](CC)C(=O)N5C)c(OC)c3)nc3c2CCN(c2cccc4cccc(Cl)c24)C3)C[C@@H]1CC#N` [Compound I-102, N-[3-[(2S)-2-[[7-(8-chloro-1-naphthyl)-4-[(3S)-3-(cyanomethyl)-4-(2-fluoroprop-2-enoyl)piperazin-1-yl]-6,8-dihydro-5H-pyrido[3,4-d]pyrimidin-2-yl]oxymethyl]pyrrolidin-1-yl]propyl]-4-[[(7R)-8-cyclopentyl-7-ethyl-5-methyl-6-oxo-7H-pteridin-2-yl]amino]-3-methoxy-benzamide], the concentration for 50% growth inhibition (GI50) in test [2] is 500 to 1500 nM. The IC50 in test [1] lay within 100 to 1000 nM.
